Tests used:
B16F10 cells = assay: B16F10 tumor model, CMP versus other STING-activating formulations; format: in vivo, C57BL/6 mice
Method: FIGS. 23A-P: Robust therapeutic effect of CMPCDA in multiple tumor models. (FIGS. 23A-23J) Therapeutic effect of CMPCDA was compared with other CDA formulations and other STING agonists in an established B16F10 tumor model. (FIGS. 23A-23E) Tumor-bearing C57BL/6 mice were treated with CMPCDA, CDA-Zn particle (CZPCDA), CDA liposome), ADU-S100, or diABZI (all 5 μg doses of STING agonists, I.T.) on the indicated time points (FIG. 23A). Shown are (FIG. 23B) the individual tumor growth, (FIG. 23C) representative photos of tumors, (FIG. 23D) average tumor growth and (FIG. 23E) survival. […] Data were analyzed by two-way ANOVA (FIG. 23D, FIG. 23I, FIG. 23P) with Bonferroni multiple comparisons post-test. Survival of (FIG. 23E, FIG. 23J, FIG. 23P) was analyzed by Kaplan-Meier survival analysis with log-rank (Mantel-Cox) test. *p and #p in (FIG. 23P) denote statistical significance relative to the untreated and CDA groups, respectively.
All animals were cared for following federal, state, and local guidelines. […] Tumor size and survival were monitored every 2-4 days. Tumor size was calculated based on equation: volume=length×width^2×0.5. […] At indicated time points, the cytokine levels in serum were measured by ELISA assay in the Cancer Center Immunology Core of the University of Michigan. The amount of tumor antigen-specific T cells among PBMC were analyzed using the IFN-γ ELISPOT assay. […]

[1] = Safety of CMP-14:0 PA in VX2 tumor bearing rabbits (body weight, AST, ALT); format: in vivo, New Zealand White rabbits; settings: 1.5 mg IV on W0 and W1
Method: FIGS. 31A-31C: CMP-14:0 PA is safe in rabbits. (FIG. 31A) VX2 tumor tissues were cut into pieces and implanted within the muscle of the both hindlimbs on W-3.5. […] (FIG. 31B) Serum was collected on W2 for measurement of AST and ALT levels as indicators of liver function. (FIG. 31C) Body weight changes in VX2 tumor bearing rabbits were monitored over the two cycles of treatment.
New Zealand White rabbits were used for this study. All rabbits were housed individually in cages under constant 21° C. temperature and 12-h light/dark cycles. All animals were cared for following federal, state, and local guidelines. All animal experimental procedures performed were in accordance with and approved by the Institutional Animal Care & Use Committee (IACUC) at the University of Michigan, Ann Arbor and complied with the National Institutes of Health (NIH) Guidelines for the care and use of laboratory animals. For establishing VX2 squamous cell carcinoma in rabbits, 4 mm^3 fresh tumor tissues were cut into small pieces and resuspended in 1 mL PBS for intramuscular injections within the hindlimbs. Both hindlimbs were implanted with the tumor tissue suspension. […] In the antitumor efficacy study, two doses of CMP-14:0 PA and diABZi were given with one week interval and the rabbits were euthanized 1 week after the last dose for primary tumors and lung metastasis analysis. […]

[2] = system: VX2 squamous cell carcinoma; assay: Rabbit VX2 squamous cell carcinoma model; format: in vivo, New Zealand White rabbits; settings: IV on W0 and W1; CMP-14:0 PA 0.5 mg, diABZi 1.5 mg; versus non-treated rabbits
Method: FIGS. 32A-E: CMP-14:0 PA exerts robust efficacy in rabbit VX2 squamous cell carcinoma model. (FIG. 32A) VX2 tumor tissues were cut into pieces and implanted within the muscle of the both hindlimbs on W-3.5. Rabbits were treated IV with 0.5 mg CMP-14:0 PA or 1.5 mg diABZi on W0 and W1. Shown are (FIG. 32B) total weight of primary tumors dissected from the muscle of the hindlimbs. (FIG. 32C) total volume of the primary tumor dissected from the muscle of the hindlimbs. (FIG. 32D) Measured tumor area ratio based on H&E staining slides of lung sections. (FIG. 32E) Representative images of the lungs.
New Zealand White rabbits were used for this study. All rabbits were housed individually in cages under constant 21° C. temperature and 12-h light/dark cycles. All animals were cared for following federal, state, and local guidelines. All animal experimental procedures performed were in accordance with and approved by the Institutional Animal Care & Use Committee (IACUC) at the University of Michigan, Ann Arbor and complied with the National Institutes of Health (NIH) Guidelines for the care and use of laboratory animals. For establishing VX2 squamous cell carcinoma in rabbits, 4 mm^3 fresh tumor tissues were cut into small pieces and resuspended in 1 mL PBS for intramuscular injections within the hindlimbs. Both hindlimbs were implanted with the tumor tissue suspension. […]

For diABZI, which “anti-tumor effect after I.T. therapy” value (B16F10 cells; 5 μg doses of STING agonists, I.T.) is on record?
Its value is “comparable anti-tumor responses”.

And the “anti-tumor effect after I.V. therapy” value (B16F10 cells; 20 μg doses, I.V.)?
Its value is “only minor anti-tumor effects”.

What about the “rabbits with elevated level of AST and ALT” value [1] of the same substance?
Its value is 1 out of 3.

What about the “weight and volume of primary tumors in the hindlimbs” value [2] of the same substance?
The value was “did not decrease the weight or volume of primary tumors”.

— patent US20250213474A1, “COMPOSITIONS AND METHODS FOR METAL CONTAINING FORMULATIONS CAPABLE OF MODULATING IMMUNE RESPONSE” (The Regents of the University of Michigan, priority 2021, published 2025)
